Measured values taken from ChEMBL document CHEMBL1629509, “Design, synthesis and inhibitory activity against Mycobacterium tuberculosis thymidine monophosphate kinase of acyclic nucleoside analogues with a distal imidazoquinolinone” (Eur J Med Chem, 2010).
Calls of active or inactive are those of the source. The rule behind the calls is not given here.

tested on: Mycobacterium tuberculosis variant bovis BCG; assay: Antimycobacterial activity against Mycobacterium bovis BCG Pasteur assessed as growth inhibition at 160 ug/ml by resazurin microtiter plate assay; assay type: functional, organism-based

Structure (SMILES) | Activity
CC(=O)NC1Cc2cccc3c2n(c(=O)n3C/C=C/Cn2cc(C)c(=O)[nH]c2=O)C1 (configuration not stated) | inactive
O=c1[nH]c(=O)n(C/C=C/CN2c3cccc4c3N(CCC4)S2(=O)=O)cc1Br | inactive
Cc1cn(C/C=C/Cn2c(=O)n3c4c(cc(N)cc42)CCC3)c(=O)[nH]c1=O | inactive
Cc1cn(C/C=C/CN2c3cccc4c3N(CCC4)S2(=O)=O)c(=O)[nH]c1=O | inactive
Cc1cn(C/C=C/Cn2c(=O)n3c4c(cccc42)CC(N)C3)c(=O)[nH]c1=O (configuration not stated) | inactive
Cc1cn(C/C=C/Cn2c(=O)n3c4c(cccc42)CCC3)c(=O)[nH]c1=O | inactive
CC(=O)Nc1cc2c3c(c1)n(C/C=C/Cn1cc(C)c(=O)[nH]c1=O)c(=O)n3CCC2 | inactive
